In data set [1] the target is αvβ6 integrin (Homo sapiens, UniProt P06756+P18564). Put plainly: Competitive binding ELISA with purified integrin, αvβ6. As for the experimental part:
(§1) Small aliquots (50 mg, ˜150,000 beads) were incubated with a mixture of red fluorescent DX3 ITGβ6 mCherry (αvβ6-positive) and green fluorescent DX3 EmGFP (αvβ6-negative) cells for 3 hours and evaluated under a fluorescent microscope. Beads that were covered only by red (i.e. αvβ6-positive) cells were isolated; these beads were subsequently characterized by Edman sequencing. Following synthesis of the identified peptides, competitive binding ELISA was performed with purified integrin to evaluate binding specificities for the target αvβ6 integrin as well as closely related αv-integrins.
Anti-αv capture antibody P2W7 (5 μg/mL, Novus Biologicals) was coated onto Nunc MaxiSorp 96-well plates, followed by blocking with BSA overnight at 4° C. All wells were washed 3 times with PBS, followed by plating of purified integrin (3 μg/mL) and incubating at room temperature in a humid chamber for 1 hour. Peptide solutions, titrated (1 μM-1 pM for αvβ6 integrin and 100 μM-100 pM for αvβ3 integrin) and mixed with biotinylated natural ligand, were added to the integrin-coated wells in triplicate. […] Captured biotinylated natural ligand was detected with ExtrAvidin-HRP and developed with TMB substrate. Half-maximal inhibitory concentration (IC50) of peptides was determined fitting to sigmoidal dose-response model in GraphPad Prism 6.0 (FIG. 5A).
In general terms: ELISA stands for enzyme-linked immunosorbent assay.

In data set [2] the target is (Homo sapiens, UniProt P06756+P18084). The data set can be described thus: Competitive binding ELISA with purified integrin, αvβ4 (so in the source). As for the experimental part:
as §1
Anti-αv capture antibody P2W7 (5 μg/mL, Novus Biologicals) was coated onto Nunc MaxiSorp 96-well plates, followed by blocking with BSA overnight at 4° C. All wells were washed 3 times with PBS, followed by plating of purified integrin (3 μg/mL) and incubating at room temperature in a humid chamber for 1 hour. Peptide solutions, titrated (1 μM-1 pM for αvβ6 integrin and 100 μM-100 pM for αvβ3 integrin) and mixed with biotinylated natural ligand, were added to the integrin-coated wells in triplicate. After incubating for an hour at room temperature, the plate was washed 3 times with wash buffer. Captured biotinylated natural ligand was detected with ExtrAvidin-HRP and developed with TMB substrate. Half-maximal inhibitory concentration (IC50) of peptides was determined fitting to sigmoidal dose-response model in GraphPad Prism 6.0 (FIG. 5A).

Data set [3] concerns the target αvβ3 integrin (Homo sapiens, UniProt P05106+P06756). Put plainly: Competitive binding ELISA with purified integrin, αvβ3. Here is the method: as §1, with “As described further below, a 9-mer XXDLXXLXK(FB) (SEQ ID NO: 23) peptide library was assembled on TentaGel resin (1 g, ˜3,000,000 beads) using standard Fmoc chemistry. Small” for “Small”
(§2) Anti-αv capture antibody P2W7 (5 μg/mL, Novus Biologicals) was coated onto Nunc MaxiSorp 96-well plates, followed by blocking with BSA overnight at 4° C. All wells were washed 3 times with PBS, followed by plating of purified integrin (3 μg/mL) and incubating at room temperature in a humid chamber for 1 hour. […] Captured biotinylated natural ligand was detected with ExtrAvidin-HRP and developed with TMB substrate. Half-maximal inhibitory concentration (IC50) of peptides was determined fitting to sigmoidal dose-response model in GraphPad Prism 6.0 (FIG. 5A). […]

For data set [4], the target named is αvβ1 (Homo sapiens, UniProt P05556+P06756). The data set can be described thus: Competitive binding ELISA with purified integrin, αvβ1. Here is the method:
as §1, with “As described further below, a 9-mer XXDLXXLXK(FB) (SEQ ID NO: 23) peptide library was assembled on TentaGel resin (1 g, ˜3,000,000 beads) using standard Fmoc chemistry. Small” for “Small”
as §2

Data set [5] is described as follows: Log P of radiolabeled peptide. The class given is physicochemical. Conditions: peptide radiolabeled with [18F]fluorobenzoic acid. Here is the method: (§3) Based on selectivity profiles of all peptides, the ST1-62 peptide was selected to move forward for radiolabeling with [^18F]fluorobenzoic acid for log P, serum stability, and cell binding studies. Log P=−1.09±0.02 (FIG. 6B). Serum stability of the peptide was determined at 1 hour after incubating with mouse serum at 37° C. (FIG. 7A).

A short description of data set [6]: Serum stability in mouse serum, HPLC analysis. The class given is in vitro ADME. Conditions: [18F]-radiolabeled peptide, 37° C., an hour. As for the experimental part:
Serum stability study analysis of Peptide 1 (ST1-62) (SEQ ID NO:2) was performed by first incubating the radiolabeled peptide ([^18F]; 25 μCi) with commercially available mouse serum at 37° C. for an hour. The radiotracer was removed from serum by precipitating out the protein with cold EtOH and then injected into a HPLC for analysis.
as §3

Data set [7] concerns DX3puroβ6 (αvβ6-positive) and DX3 puro (αvβ6-negative) cells. The data set can be described thus: Flow cytometry binding to DX3puroβ6 and DX3 puro cells. The class given is cell-based, human. Conditions: peptide concentrations of 10 μM and 100 μM. An excerpt: FIGS. 8A and 8B show binding of a peptide labeled with FAM-X ([…]-FAM-X; SEQ ID NO:15) to DX3puroβ6 and DX3 puro cells. […] 150,000 cells were used in each experiment. […] These studies used 75,000, 150,000, or 300,000 cells per experiment. The control experiment used 300,000 unstained cells.
Flow cytometry was used to assay the binding of a peptide labeled with FAM-X ([…]-FAM-X; SEQ ID NO:15) to DX3puroβ6 and DX3 puro cells.
A general note: In flow cytometry, cells or beads pass a laser one at a time.

Like-named read-outs stand apart in the source and are kept apart here. Residues, ends and D or L forms follow the SMILES beside them. *: point of attachment. Benzoyl(4-F) = O=C(c1ccc(F)cc1)*

What is called IC50 is the concentration that gives 50% inhibition. Regarding `CN[C@H](C(=O)NCC(=O)N[C@@H](CC(=O)O)C(=O)N[C@@H](CC(C)C)C(=O)N[C@H](C(=O)N[C@@H](Cc1ccc(O)cc1)C(=O)N[C@@H](CC(C)C)C(=O)N[C@@H](CCCCN)C(=O)N[C@@H](CCCCNC(=O)c1ccc(F)cc1)C(N)=O)[C@@H](C)O)C(C)C`, the IC50 in data set [1] was 0.5 µM. As for `CSCC[C@H](NC(=O)[C@H](CC(C)C)NC(=O)[C@H](CC(=O)O)NC(=O)CNC(=O)[C@@H](N)CCCNC(=N)N)C(=O)N[C@@H](CCCCN)C(=O)N[C@@H](CC(C)C)C(=O)N[C@@H](C)C(=O)N[C@@H](CCCCNC(=O)c1ccc(F)cc1)C(N)=O` [ST1-59] (H-RGDLMKLAK(Benzoyl(4-F))-NH2), the IC50 in data set [2] is greater than 100 µM. In the case of `CC(C)C[C@H](NC(=O)[C@H](CC(=O)O)NC(=O)CNC(=O)[C@@H](N)CCCNC(=N)N)C(=O)N[C@@H](C)C(=O)N[C@@H](CC(=O)O)C(=O)N[C@@H](CC(C)C)C(=O)N[C@@H](CCCNC(=N)N)C(=O)N[C@@H](CCCCNC(=O)c1ccc(F)cc1)C(N)=O` [ST1-60] (H-RGDLADLRK(Benzoyl(4-F))-NH2), the IC50 in data set [3] was 0.5 µM; in data set [2] (competitive binding ELISA, read-out: IC50 αvβ4) it was greater than 100 µM. As for `CC(C)C[C@H](NC(=O)[C@H](CCC(=O)O)NC(=O)[C@H](CCCNC(=N)N)NC(=O)[C@H](CC(C)C)NC(=O)[C@H](CC(=O)O)NC(=O)CNC(=O)[C@@H](N)CCCNC(=N)N)C(=O)N[C@@H](C)C(=O)N[C@@H](CCCCNC(=O)c1ccc(F)cc1)C(N)=O` [ST1-61] (H-RGDLRELAK(Benzoyl(4-F))-NH2), the IC50 in data set [2] was greater than 100 µM. As usually defined, the logP is a log measure of how a compound divides between an organic and an aqueous phase. Regarding `CC(C)C[C@H](NC(=O)[C@H](Cc1ccc(O)cc1)NC(=O)[C@@H](NC(=O)[C@H](CC(C)C)NC(=O)[C@H](CC(=O)O)NC(=O)CNC(=O)[C@@H](N)C(C)C)[C@@H](C)O)C(=O)N[C@@H](CCCCN)C(=O)N[C@@H](CCCCNC(=O)c1ccc(F)cc1)C(N)=O` [ST1-62], the IC50 in data set [4] and in data set [2] was greater than 100 µM throughout. Also, in data set [5], the logP is -1.09 ± 0.02. In addition, the Serum stability result in data set [6] is “cleaved by proteases within an hour”.

With “VGDLTYLKK-FAM-X (FAM label; C-term FAM-X, fluorescein dye/label) [Fluorescent labeled peptide]”, in data set [7], the “Binding to αvβ6-positive versus αvβ6-negative cells” value is reported as “increased binding to the αvβ6-positive cells than the αvβ6-negative cells”.

The record behind these values is patent US12023391B2, “Alpha(v)beta(6) integrin-binding peptides and methods of use thereof” (The Regents of the University of California, priority 2016, dated 2024).
